Earlier results on two compounds are cited in paper PMC11261219 (Clinical and Molecular Hepatology, 2024).

Series [1] concerns HBV. As to conditions: after 3 years.
Series [2] concerns HBV DNA and HBV RNA. As to conditions: added to patients taking NUCs, versus NUCs alone.

In the case of pegylated interferon [pegIFN], the “functional cure, patients” value in series [1] is reported as “approximately 11%”.
For `O=C(NCc1cnc(C(F)(F)F)s1)c1ccc2c(c1)NC(=O)c1ccccc1S2(=O)=O` [vebicorvir], the “suppression of HBV DNA and HBV RNA” value in series [2] was “further suppressed HBV DNA and HBV RNA more than with NUCs alone”.
